Experimental data taken from patent publication US8952024B2, “Herbicidal pyrimidone derivatives” (E I du Pont de Nemours and Company, priority 2009, dated 2015).

Assays:
Assay in all cases: Test B pre-/postemergence plant response
Format in all cases: in vivo
[1] = tested on: yellow nutsedge (Cyperus esculentus)
How it was run: (§1)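 Steps: sow seed in loam–sand soil and spray preemergence, or grow plants in peat-based medium to 1–4 leaves (2–18 cm) and spray postemergence; formulation is non-phytotoxic solvent plus surfactant; hold in greenhouse 13–15 days; score visually vs controls, 0 = no effect, 100 = complete control.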

[2] = tested on: green foxtail (Setaria viridis)
How it was run: as §1

[3] = tested on: blackgrass (Alopecurus myosuroides)
How it was run: as §1

[4] = tested on: lambsquarters (Chenopodium album)
How it was run: as §1

[5] = tested on: giant foxtail (Setaria faberii)
How it was run: as §1

[6] = tested on: downy bromegrass (Bromus tectorum)
How it was run: as §1

[7] = tested on: johnsongrass (Sorghum halepense)
How it was run: as §1

[8] = tested on: woolly cupgrass (Eriochloa villosa)
How it was run: as §1

[9] = tested on: goosegrass (Eleusine indica)
How it was run: as §1

[10] = tested on: ragweed (common ragweed, Ambrosia elatior)
How it was run: as §1

[11] = tested on: velvetleaf (Abutilon theophrasti)
How it was run: as §1

[12] = tested on: bermudagrass (Cynodon dactylon)
How it was run: as §1

kochia (Kochia scoparia) = tested on: kochia (Kochia scoparia)
How it was run: as §1

[13] = tested on: Surinam grass (Brachiaria decumbens)
How it was run: as §1

[14] = tested on: Italian ryegrass (Lolium multiflorum)
How it was run: as §1

[15] = tested on: large crabgrass (Digitaria sanguinalis)
How it was run: as §1

corn (Zea mays) = tested on: corn (Zea mays)
How it was run: as §1

[16] = 31 g ai/ha, postemergence, scale 0 to 100, 0 is no effect, 100 is complete control
[17] = Postemergence, 62 g ai/ha, scale 0 (no effect) to 100 (complete control), 13 to 15 days
[18] = Postemergence, 125 g ai/ha, visual rating after 13 to 15 days, scale 0 (no effect) to 100 (complete control)
[19] = Postemergence, 250 g ai/ha, scale 0 to 100 (0 no effect, 100 complete control)
[20] = Preemergence, 31 g ai/ha, scale 0 to 100 (0 no effect, 100 complete control)
[21] = Preemergence, 62 g ai/ha, scale 0 to 100, 0 no effect, 100 complete control
[22] = Preemergence, 125 g ai/ha, scale 0 to 100, 0 no effect, 100 complete control
[23] = 250 g ai/ha, Preemergence, 0 to 100 scale

O=C1CCCC(O)=C1C(=O)c1cnc(-c2cccs2)n(-c2ccccc2)c1=O [Compound 66]
Plant response rating, Nutsedge, Yellow [1, 16]: 25
Plant response rating, Nutsedge, Yellow [1, 17]: 45
Plant response rating, Nutsedge, Yellow [1, 18]: 65
Plant response rating, Nutsedge, Yellow [1, 19]: 70
Plant response rating, Nutsedge, Yellow [1, 20]: 10
Plant response rating, Nutsedge, Yellow [1, 21]: 30
Plant response rating, Nutsedge, Yellow [1, 22]: 85
Plant response rating, Foxtail, Green [2, 16]: 80
Plant response rating, Foxtail, Green [2, 23]: 75
Plant response rating, Foxtail, Green [2, 17]: 85
Plant response rating, Foxtail, Green [2, 18]: 90
Plant response rating, Foxtail, Green [2, 19]: 98
Plant response rating, Foxtail, Green [2, 20]: 0
Plant response rating, Foxtail, Green [2, 21]: 5
Plant response rating, Foxtail, Green [2, 22]: 30
Plant response rating, Blackgrass [3, 16]: 5
Plant response rating, Blackgrass [3, 23]: 5
Plant response rating, Blackgrass [3, 17]: 10
Plant response rating, Blackgrass [3, 18]: 10
Plant response rating, Blackgrass [3, 19]: 15
Plant response rating, Blackgrass [3, 20]: 0
Plant response rating, Blackgrass [3, 21]: 0
Plant response rating, Blackgrass [3, 22]: 5
Plant response rating, Lambsquarters [4, 16]: 95
Plant response rating, Lambsquarters [4, 23]: 100
Plant response rating, Lambsquarters [4, 17]: 95
Plant response rating, Lambsquarters [4, 18]: 95
Plant response rating, Lambsquarters [4, 19]: 100
Plant response rating, Lambsquarters [4, 20]: 98
Plant response rating, Lambsquarters [4, 21]: 98
Plant response rating, Lambsquarters [4, 22]: 98
Plant response rating, Foxtail, Giant [5, 16]: 65
Plant response rating, Foxtail, Giant [5, 23]: 80
Plant response rating, Foxtail, Giant [5, 17]: 75
Plant response rating, Foxtail, Giant [5, 18]: 80
Plant response rating, Foxtail, Giant [5, 19]: 95
Plant response rating, Foxtail, Giant [5, 20]: 15
Plant response rating, Foxtail, Giant [5, 21]: 20
Plant response rating, Foxtail, Giant [5, 22]: 75
Plant response rating, Bromegrass, Downy [6, 16]: 5
Plant response rating, Bromegrass, Downy [6, 23]: 0
Plant response rating, Bromegrass, Downy [6, 17]: 10
Plant response rating, Bromegrass, Downy [6, 18]: 20
Plant response rating, Bromegrass, Downy [6, 19]: 25
Plant response rating, Bromegrass, Downy [6, 20]: 0
Plant response rating, Bromegrass, Downy [6, 21]: 0
Plant response rating, Bromegrass, Downy [6, 22]: 0
Plant response rating, Johnsongrass [7, 16]: 45
Plant response rating, Johnsongrass [7, 23]: 98
Plant response rating, Johnsongrass [7, 17]: 60
Plant response rating, Johnsongrass [7, 18]: 65
Plant response rating, Johnsongrass [7, 19]: 65
Plant response rating, Johnsongrass [7, 20]: 0
Plant response rating, Johnsongrass [7, 21]: 55
Plant response rating, Johnsongrass [7, 22]: 85
Plant response rating, Cupgrass, Woolly [8, 16]: 40
Plant response rating, Cupgrass, Woolly [8, 23]: 75
Plant response rating, Cupgrass, Woolly [8, 17]: 40
Plant response rating, Cupgrass, Woolly [8, 18]: 60
Plant response rating, Cupgrass, Woolly [8, 19]: 75
Plant response rating, Cupgrass, Woolly [8, 20]: 25
Plant response rating, Cupgrass, Woolly [8, 21]: 40
Plant response rating, Cupgrass, Woolly [8, 22]: 60
Plant response rating, Goosegrass [9, 16]: 65
Plant response rating, Goosegrass [9, 23]: 98
Plant response rating, Goosegrass [9, 17]: 65
Plant response rating, Goosegrass [9, 18]: 70
Plant response rating, Goosegrass [9, 19]: 95
Plant response rating, Goosegrass [9, 20]: 35
Plant response rating, Goosegrass [9, 21]: 75
Plant response rating, Goosegrass [9, 22]: 90
Plant response rating, Ragweed [10, 16]: 0
Plant response rating, Ragweed [10, 17]: 10
Plant response rating, Ragweed [10, 18]: 25
Plant response rating, Ragweed [10, 19]: 60
Plant response rating, Ragweed [10, 20]: 0
Plant response rating, Ragweed [10, 21]: 0
Plant response rating, Ragweed [10, 22]: 45
Plant response rating, Velvetleaf [11, 16]: 85
Plant response rating, Velvetleaf [11, 17]: 90
Plant response rating, Velvetleaf [11, 18]: 98
Plant response rating, Velvetleaf [11, 19]: 100
Plant response rating, Velvetleaf [11, 20]: 80
Plant response rating, Velvetleaf [11, 21]: 80
Plant response rating, Velvetleaf [11, 22]: 95
Plant response rating, Bermudagrass [12, 16]: 70
Plant response rating, Bermudagrass [12, 23]: 98
Plant response rating, Bermudagrass [12, 17]: 70
Plant response rating, Bermudagrass [12, 18]: 95
Plant response rating, Bermudagrass [12, 19]: 95
Plant response rating, Bermudagrass [12, 20]: 20
Plant response rating, Bermudagrass [12, 21]: 80
Plant response rating, Bermudagrass [12, 22]: 98
Plant response rating, Kochia (kochia (Kochia scoparia); [16]): 80
Plant response rating, Kochia (kochia (Kochia scoparia); [23]): 85
Plant response rating, Kochia (kochia (Kochia scoparia); [17]): 85
Plant response rating, Kochia (kochia (Kochia scoparia); [18]): 90
Plant response rating, Kochia (kochia (Kochia scoparia); [19]): 98
Plant response rating, Kochia (kochia (Kochia scoparia); [20]): 80
Plant response rating, Kochia (kochia (Kochia scoparia); [21]): 80
Plant response rating, Kochia (kochia (Kochia scoparia); [22]): 85
Plant response rating, Surinam Grass [13, 16]: 65
Plant response rating, Surinam Grass [13, 17]: 70
Plant response rating, Surinam Grass [13, 18]: 85
Plant response rating, Surinam Grass [13, 19]: 98
Plant response rating, Surinam Grass [13, 20]: 35
Plant response rating, Surinam Grass [13, 21]: 80
Plant response rating, Surinam Grass [13, 22]: 90
Plant response rating, Ryegrass, Italian [14, 16]: 0
Plant response rating, Ryegrass, Italian [14, 17]: 0
Plant response rating, Ryegrass, Italian [14, 18]: 5
Plant response rating, Ryegrass, Italian [14, 19]: 10
Plant response rating, Ryegrass, Italian [14, 20]: 0
Plant response rating, Ryegrass, Italian [14, 21]: 0
Plant response rating, Ryegrass, Italian [14, 22]: 0
Plant response rating, Crabgrass, Large [15, 16]: 50
Plant response rating, Crabgrass, Large [15, 23]: 100
Plant response rating, Crabgrass, Large [15, 17]: 55
Plant response rating, Crabgrass, Large [15, 18]: 65
Plant response rating, Crabgrass, Large [15, 19]: 70
Plant response rating, Crabgrass, Large [15, 20]: 70
Plant response rating, Crabgrass, Large [15, 21]: 85
Plant response rating, Crabgrass, Large [15, 22]: 95
Plant response rating, Corn (corn (Zea mays); [16]): 25
Plant response rating, Corn (corn (Zea mays); [23]): 0
Plant response rating, Corn (corn (Zea mays); [17]): 55
Plant response rating, Corn (corn (Zea mays); [18]): 70
Plant response rating, Corn (corn (Zea mays); [19]): 75
Plant response rating, Corn (corn (Zea mays); [20]): 0
Plant response rating, Corn (corn (Zea mays); [21]): 0
Plant response rating, Corn (corn (Zea mays); [22]): 0
